molecular target: T1, TANK-2 enzyme (Homo sapiens, UniProt Q9H2K2); assay: In vitro scintillation proximity assay (SPA) for TANK-2 inhibitory activity; type: biochemical; settings: auto-poly(ADP-ribosyl)ation; 96-well plate results if available, otherwise 384-well; read-out: in vitro SPA assay TANK-2 pIC50 (converted)
T1 construct: made in house
T1 sequence (Q9H2K2 1-1166): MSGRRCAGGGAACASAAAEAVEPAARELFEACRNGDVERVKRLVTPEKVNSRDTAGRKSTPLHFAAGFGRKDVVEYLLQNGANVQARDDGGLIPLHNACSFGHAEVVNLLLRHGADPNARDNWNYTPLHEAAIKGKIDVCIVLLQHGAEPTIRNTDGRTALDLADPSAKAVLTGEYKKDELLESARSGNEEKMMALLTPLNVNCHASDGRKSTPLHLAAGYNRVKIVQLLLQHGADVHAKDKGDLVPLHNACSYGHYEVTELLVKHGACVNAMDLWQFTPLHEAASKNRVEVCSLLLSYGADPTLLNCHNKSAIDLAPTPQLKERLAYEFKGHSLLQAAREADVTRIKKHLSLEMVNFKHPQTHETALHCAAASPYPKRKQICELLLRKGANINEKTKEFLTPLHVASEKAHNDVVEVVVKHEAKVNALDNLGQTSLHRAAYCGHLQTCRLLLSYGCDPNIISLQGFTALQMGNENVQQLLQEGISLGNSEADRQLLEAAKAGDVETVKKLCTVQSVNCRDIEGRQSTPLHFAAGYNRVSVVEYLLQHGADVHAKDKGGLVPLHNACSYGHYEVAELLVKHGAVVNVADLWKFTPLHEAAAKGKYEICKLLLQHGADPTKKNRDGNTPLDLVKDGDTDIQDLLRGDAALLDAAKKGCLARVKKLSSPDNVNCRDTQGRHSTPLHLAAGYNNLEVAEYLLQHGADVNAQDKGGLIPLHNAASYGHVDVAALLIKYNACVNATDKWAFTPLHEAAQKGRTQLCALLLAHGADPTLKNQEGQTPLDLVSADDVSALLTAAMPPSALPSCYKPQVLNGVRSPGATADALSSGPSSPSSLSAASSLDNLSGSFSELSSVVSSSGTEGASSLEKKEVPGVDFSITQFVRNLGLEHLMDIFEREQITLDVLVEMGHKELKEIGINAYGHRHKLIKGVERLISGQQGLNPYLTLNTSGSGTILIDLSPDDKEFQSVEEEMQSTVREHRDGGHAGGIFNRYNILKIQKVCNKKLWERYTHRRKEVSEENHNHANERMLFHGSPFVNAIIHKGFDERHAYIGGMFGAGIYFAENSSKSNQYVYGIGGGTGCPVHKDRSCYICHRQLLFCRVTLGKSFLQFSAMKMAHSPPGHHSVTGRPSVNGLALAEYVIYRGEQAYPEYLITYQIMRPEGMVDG
Method: In Vitro Scintillation Proximity Assay (SPA) for TANK-2 Inhibitory Activity
Compounds of the present invention were tested in an in vitro assay based on SPA technology with Ni Flash plates (96 or 384 well).
In principle, the assay relies upon SPA technology for the detection of auto-poly(ADP-ribosyl)ation of TANK-2 protein using [^3H]-nicotinamide adenine dinucleotide ([^3H]-NAD^+) as ADP-ribosyl donor.
A stock solution of [^3H]-NAD^+/NAD was made by adding 64.6 μl of [^3H]-NAD^+ (0.1 mCi/ml, supplier: Perkin Elmer) and 46.7 μl NAD-stock (10.7 mM, stored at −20° C., supplier Roche) to 1888.7 μl assay buffer (60 mM Tris/HCl, pH 7.4; 0.9 mM DTT; 6 mM MgCl2). The TANK-2 enzyme was produced as described in EP1238063. 60 μl of assay buffer, together with 1 μl of compound in DMSO, 20 μl of [^3H]-NAD^+/NAD and 20 μl of TANK-2 enzyme (final concentration 6 μg/ml) was added per well into a 96-well Ni-coated flash plate (Perkin Elmer). After incubation of the mixture for 120 min. at room temperature, the reaction was terminated by adding 60 μl of stop solution (42.6 mg NAD in 6 ml H2O). The plates were covered with a plate sealer and placed in a TopCountNXT™ (Packard) for scintillation counting. Values were expressed as counts per minute (cpm). For each experiment, controls (containing TANK-2 enzyme and DMSO without compound), a blank incubation (containing DMSO but no TANK-2 enzyme or compound) and samples (containing TANK-2 enzyme and compound dissolved in DMSO) were run in parallel. All compounds tested were dissolved and eventually further diluted in DMSO. In first instance, compounds were tested at a concentration of 10^−5M. […] In each test, the blank value was subtracted from both the control and the sample values. The control sample represented maximal TANK-2 enzyme activity. For each sample, the amount of cpm was expressed as a percentage of the mean cpm value of the controls. When appropriate, IC50-values (concentration of the drug, needed to reduce the TANK-2 enzyme activity to 50% of the control) were computed using linear interpolation between the experimental points just above and below the 50% level. Herein the effects of test compounds are expressed as pIC50 (the negative log value of the IC50-value). As reference compounds, 3-aminobenzamide and 4-amino-1,8-naphthalimide were included to validate the SPA assay. Herein the assay was described using 96-well plates. In the assay using 384-well plates the same final concentrations were used and volumes were adapted.

SMILES | IC50
O=c1[nH]c(NCCN2CCN(c3n[nH]c4ccccc34)CC2)nc2ccc(Cl)cc12 [Compound 1] | > 10 µM
O=c1[nH]c(NCCCN2CCC(O)(c3ccc(Cl)cc3)CC2)nc2ccccc12 [Compound 2] | > 10 µM
CCc1cc2cc(CN3CCN(CCNc4nc5ccccc5c(=O)[nH]4)CC3)ccc2nc1OC [Compound 3] | 1.77 µM
CC1(C)Cc2c(N)c(Cl)cc(C(=O)NC3CCN(CCCNc4nc(O)c5ccccc5n4)CC3)c2O1 [Compound 4] | > 10 µM
CC1(C)Cc2c(N)c(Cl)cc(C(=O)NC3CCN(CCCCNc4nc(O)c5ccccc5n4)CC3)c2O1 [Compound 5] | > 10 µM
CO[C@@H]1CN(CCCNc2nc(O)c3ccccc3n2)CC[C@@H]1NC(=O)c1cc(Cl)c(N)c2c1OCCC2 [Compound 6] | > 10 µM
Nc1c(Cl)cc(C(=O)OCC2CCN(CCNc3nc4ccccc4c(=O)[nH]3)CC2)c2c1OCCO2 [Compound 7] | 0.746 µM
CO[C@@H]1CN(CCCNc2nc(O)c3ccccc3n2)CCN1NC(=O)c1cc(Cl)c(N)c2c1OC(C)(C)C2 [Compound 8] | > 10 µM
CO[C@H]1CN(CCCNc2nc3ccccc3c(=O)[nH]2)CC[C@H]1NC(=O)c1cc(Cl)cc2c1OC(C)(C)C2 [Compound 18] | > 10 µM
O=c1[nH]c(NCCCN2CCC(c3c[nH]c4ccccc34)CC2)nc2ccccc12 [Compound 20] | > 10 µM
O=c1[nH]c(NCCN2CCC(c3n[nH]c4cc(F)ccc34)CC2)nc2ccccc12 [Compound 21] | > 10 µM
O=c1[nH]c(NCCCN2CCN(c3n[nH]c4ccccc34)CC2)nc2ccccc12 [Compound 22] | 8.45 µM
O=C(NC1CCN(CCCNc2nc3ccccc3c(=O)[nH]2)CC1)c1ccccc1 [Compound 23] | > 10 µM
O=c1[nH]c(NCCCN2CCN(c3nsc4ccccc34)CC2)nc2ccccc12 [Compound 24] | > 10 µM
O=c1[nH]c(NCCCN2CCC(c3n[nH]c4cc(F)ccc34)CC2)nc2ccccc12 [Compound 25] | > 10 µM
O=c1[nH]c(NCCCN2CCC(c3noc4cc(F)ccc34)CC2)nc2ccccc12 [Compound 26] | > 10 µM
O=c1[nH]c(NCCCN2CCN(c3n[nH]c4cc(F)ccc34)CC2)nc2ccccc12 [Compound 27] | 7.96 µM

SMILES | IC50
CCCCn1cc(C2CCN(CCCNc3nc4ccccc4c(=O)[nH]3)CC2)c2ccccc21 [Compound 28] | > 10 µM
O=c1[nH]c(NCCCN2CCC(n3c(=O)[nH]c4ccccc43)CC2)nc2ccccc12 [Compound 29] | > 10 µM
O=c1[nH]c(NCCN2CCC(Nc3nc4ccccc4c(=O)[nH]3)CC2)nc2ccccc12 [Compound 30] | 0.794 µM
O=c1[nH]c(NCCN2CCC(c3n[nH]c4cc(F)ccc34)CC2)nc2cc(Cl)ccc12 [Compound 31] | > 10 µM
O=c1[nH]c(NCCN2CCC(Nc3n[nH]c(=O)c4ccccc34)CC2)nc2ccccc12 [Compound 33] | 0.938 µM
O=c1[nH]c(NCCN2CCC(c3n[nH]c4cc(F)ccc34)CC2)nc2ccc(Cl)cc12 [Compound 36] | > 10 µM
Cc1ccc2nc(NCCN3CCC(c4n[nH]c5cc(F)ccc45)CC3)[nH]c(=O)c2c1 [Compound 37] | > 10 µM
O=c1[nH]c(NCCN2CCN(c3nc4ccccc4c(=O)[nH]3)CC2)nc2ccccc12 [Compound 38] | 0.537 µM
Cc1cccc2nc(NCCN3CCN(c4n[nH]c5ccccc45)CC3)[nH]c(=O)c12 [Compound 39] | > 10 µM
O=c1nc(NCCCN2CCC(Nc3nccc4ccccc34)CC2)[nH]c2ccccc12 [Compound 40] | > 10 µM
O=c1[nH]c(NCCN2CCN(c3n[nH]c4cc(F)ccc34)CC2)nc2ccccc12 [Compound 41] | > 10 µM
O=c1[nH]c(NCCCN2CCC(Nc3cccc4ccccc34)CC2)nc2ccccc12 [Compound 42] | > 10 µM
Cc1ccc2nc(NCCN3CCN(c4n[nH]c5ccccc45)CC3)[nH]c(=O)c2c1 [Compound 43] | > 10 µM
O=c1[nH]c(NCCN2CCN(c3n[nH]c4ccccc34)CC2)nc2cc(Cl)ccc12 [Compound 44] | > 10 µM
Nc1c(Cl)cc(C(=O)NC2CCN(CCCNc3nc(O)c4ccccc4n3)CC2)c2c1CCO2 [Compound 45] | > 10 µM
O=C(c1ccc(F)cc1)C1CCN(CCNc2nc3ccccc3c(=O)[nH]2)CC1 [Compound 46] | > 10 µM

— patent US10150757B2, “Quinazolinone derivatives as PARP inhibitors” (Janssen Pharmaceutica NV, priority 2004, dated 2018)
